Laboratory results as given in patent US11555212B2, “Process for the production of sulfated phenolic compounds using modified Escerichia coli” (CysBio ApS, priority 2016, dated 2023).

How the values were obtained:
Format in all cases: cell-based
SULT1A1 rat = biological target: T1, SULT1A1 rat (Rattus norvegicus, UniProt P17988); assay: Titers of zosteric acid in Saccharomyces cerevisiae expressing a sulfotransferase; conditions: S. cerevisiae CEN.PK102-5B, modified Delft medium, 10 mM p-coumaric acid, overnight 30° C.
T1 construct: expressed in transfected cells; host or cells: Saccharomyces cerevisiae CEN.PK102-5B (plasmids pCBJ283, pCBJ284)
T1 sequence (P17988 whole entry): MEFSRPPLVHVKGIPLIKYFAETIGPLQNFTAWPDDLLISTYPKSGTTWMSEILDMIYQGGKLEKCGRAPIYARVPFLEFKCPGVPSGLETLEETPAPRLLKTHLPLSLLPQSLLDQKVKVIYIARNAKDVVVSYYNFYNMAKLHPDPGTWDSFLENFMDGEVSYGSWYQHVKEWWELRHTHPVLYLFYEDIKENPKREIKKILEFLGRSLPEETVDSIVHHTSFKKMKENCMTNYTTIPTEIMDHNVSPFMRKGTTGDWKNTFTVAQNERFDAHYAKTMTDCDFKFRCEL
Method: (§1) The concentration of p-courmaric acid (pHCA) and zosteric acid in the supernatant was quantified by high performance liquid chromatography (HPLC) and compared to chemical standards. HPLC was done on a Thermo setup using a HS-F5 column and mobile phases: 5 mM ammonium formate pH 4.0 (A) and acetonitrile (B) at 1.5 mL min-1, using a gradient elution starting at 5% B. From 0.5 min after injection to 7 min, the fraction of B increased linearly from 5% to 60%, and between 9.5 min and 9.6 the fraction of B decreased back to 5%, and remaining there until 12 min. pHCA and zosteric acid were quantified by measuring absorbance at 277 nm.
The gene encoding aryl sulfotransferase SULT1A (Example 1) was cloned after a TEF1 promoter into an episomal plasmid with a 2-micron origin of replication as follows. The gene was amplified by PCR using primers CBJP633 and CBJP634. Alternatively, the gene was codon-optimized for E. coli and synthesized by GeneArt and amplified by primers CBJP635 and CBJP636. The TEF1 promoter (Jensen et al., 2014, FEMS Yeast Res 14: 238-248) was amplified by PCR using the primers PTEF1_fw and PTEF1_rv. Plasmid pCfB132 (Jensen et al., supra) was digested by restriction enzymes AsiSI and Nt.Bsml. […]

SULT1A1 Equus caballus = assay: Percent conversion of substrates by E. coli expressing a sulfotransferase; conditions: E. coli BL21(DE3)pLysS expressing SULT1A1 Equus caballus; M9; pHCA 100 μM, resveratrol 95 μM or kaempferol 87 μM; overnight 37° C.
Method: as §1
(§2) Different sulfotransferases were examined for their substrate specificities against three substrates. We tested the sulfotransferases mentioned in example 1, as well as additional ones. The genes encoding these were cloned as described in example 1 using the primers shown in the table below from cDNA libraries of the respective organisms, except for the SULT1A1 from rat (Rattus norvegicus) codon-optimized for E. coli (described above). The resulting vectors were transformed into BL21(DE3)pLysS.
(§3) The resulting strains were grown in M9 medium containing either 100 μM pHCA, 95 μM resveratrol or 87 μM kaempferol. The cultures were grown overnight at 37° C., 300 rpm. The following day the supernatants were isolated and examined by HPLC as described in example 1.

SULT1A1 human = biological target: T2, SULT1A1 human (Homo sapiens, UniProt P50225, V223M); assay: as above; conditions: E. coli BL21(DE3)pLysS expressing SULT1A1 human; M9; pHCA 100 μM, resveratrol 95 μM or kaempferol 87 μM; overnight 37° C.
T2 construct: expressed in transfected cells; host or cells: E. coli BL21(DE3)pLysS
T2 sequence (P50225 whole entry V223M): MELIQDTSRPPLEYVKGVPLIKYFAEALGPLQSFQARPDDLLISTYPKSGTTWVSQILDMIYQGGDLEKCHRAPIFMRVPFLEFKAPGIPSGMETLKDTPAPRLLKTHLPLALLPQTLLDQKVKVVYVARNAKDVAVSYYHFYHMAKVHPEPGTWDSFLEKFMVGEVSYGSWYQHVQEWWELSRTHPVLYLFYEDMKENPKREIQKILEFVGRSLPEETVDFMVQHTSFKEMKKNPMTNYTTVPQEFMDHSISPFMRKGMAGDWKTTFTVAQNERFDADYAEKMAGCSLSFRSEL
Method: as §1, §2, §3

[1] = biological target: T3, SULT1A1 Canis lupus familiaris (Canis lupus familiaris, UniProt Q29476); assay: as above; conditions: E. coli BL21(DE3)pLysS expressing SULT1A1 Canis lupus familiaris; M9; pHCA 100 μM, resveratrol 95 μM or kaempferol 87 μM; overnight 37° C.
T3 construct: 1, 3, 4, 5, and 6 were cloned amplified from liver tissue cDNA; expressed in transfected cells; host or cells: E. coli BL21(DE3)pLysS
T3 sequence (Q29476 whole entry): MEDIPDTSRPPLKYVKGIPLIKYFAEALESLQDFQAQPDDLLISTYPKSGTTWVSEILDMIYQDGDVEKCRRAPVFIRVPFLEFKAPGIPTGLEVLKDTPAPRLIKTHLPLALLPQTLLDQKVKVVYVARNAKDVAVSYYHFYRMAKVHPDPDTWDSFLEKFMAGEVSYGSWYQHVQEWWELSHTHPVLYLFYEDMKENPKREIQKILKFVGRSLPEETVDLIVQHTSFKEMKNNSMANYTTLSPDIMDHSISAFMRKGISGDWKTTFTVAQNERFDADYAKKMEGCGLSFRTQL
Method: as §1, §2, §3

[2] = biological target: T4, SULT1A1 Rattus norvegicus (Rattus norvegicus, UniProt P17988); assay: as above; conditions: M9, pHCA 100 μM, resveratrol 95 μM or kaempferol 87 μM, overnight 37° C.
T4 construct: 1, 3, 4, 5, and 6 were cloned amplified from liver tissue cDNA; expressed in transfected cells
T4 sequence (P17988 whole entry): as the sequence (P17988 whole entry) above
Method: as §1, §2, §3

SMILES	μM ZA (averages and standard deviations of replicate experiments) (SULT1A1 rat; SULT1A1 rat (codon optimized for E. coli)) [µM]	μM ZA (averages and standard deviations of replicate experiments) (SULT1A1 rat; SULT1A1 rat (native)) [µM]	Percent conversion of the substrate (SULT1A1 Equus caballus) [%]	Percent conversion of the substrate (SULT1A1 human) [%]	Percent conversion of the substrate [1] [%]	Percent conversion of the substrate ([2]; E. coli BL21(DE3)pLysS expressing SULT1A1 Rattus norvegicus (Codon-optimized for E. coli)) [%]	Percent conversion of the substrate ([2]; E. coli BL21(DE3)pLysS expressing SULT1A1 Rattus norvegicus) [%]
O=C(O)/C=C/c1ccc(OS(=O)(=O)O)cc1 [Zosteric acid, zosteric acid]	46.2 ± 3.5	37.8 ± 5.7					
O=C(O)/C=C/c1ccc(O)cc1 [pHCA, p-coumaric acid]			21	39	34	73	93
